Results on seven molecules are retold here after PMC6632015, “Niosomal Nanocarriers for Enhanced Skin Delivery of Quercetin with Functions of Anti-Tyrosinase and Antioxidant” (Molecules, 2019).

The structures appear in SMILES notation. Converted amounts (≈) assume the structure as drawn.

For one series, the system named is tyrosinase. The experiment in a line: In vitro tyrosinase inhibition (dopachrome formation at 493 nm, L-tyrosine substrate). The series is classed as biochemical. Particulars: for IC50 anti-tyrosinase activity: tyrosinase 120 unites/mL, phosphate buffer pH 6.8, 30 °C, L-tyrosine. How it is done: The tyrosinase inhibition assay was performed based on a previous study with slight modification. The activity of tyrosinase inhibition was determined using a spectrophotometer by monitoring dopachrome formation at 493 nm. […] After incubation at 30 °C for 10 min, 0.5 mL of L-tyrosine was added to the systems. The reaction systems were incubated at 30 °C for 20 min and absorbance was determined at 493 nm. […] The degree of inhibition of the sample was expressed as 50% inhibition concentration (IC50).
The inhibitory effects of the test samples were expressed as the percentage of tyrosinase inhibition as follows:(1) Tyrosinase inhibition=(A−B)−(C−D)/(A−B)×100% where A and B denote the absorbance at 493 nm of the mixture without the test sample (L-tyrosine mixed with the enzyme in the buffer; the control) and without the test sample or the enzyme (L-tyrosine in the buffer; the blank), respectively; C and D denote those with the test sample and enzyme (L-tyrosine mixed with the enzyme and test sample in the buffer; the reaction mixture) and without the enzyme (L-tyrosine mixed with the test sample in the buffer; the blank version of C).

Series [1] can be described thus: DPPH radical scavenging activity. The conditions noted are these: DPPH 30 μg/mL, absorbance at 515 nm. As for the experimental part: The antioxidant activity of flavonoids was measured by the bleaching rate of DPPH, reported by Blois. In its radical form, DPPH absorbs at the wavelength of 515 nm, but its absorption decreases upon reduction by an antioxidant or a radical compound. The DPPH radical scavenging activity of flavonoids was evaluated according to the method described by Rui Yang, with some modifications. Briefly, 5 mL of DPPH (30 μg/mL) was mixed with 0.1 mL of absolute ethyl alcohol and 0.1 mL of samples with different concentrations. Then, the absorbance of the mixtures was determined at 515 nm. The DPPH radical scavenging activity was calculated as follows: (2) DPPH radical scavenging activity = A0−Ai/A0×100% where A0 and Ai denote the absorbance at 515 nm of the control (DPPH mixed with absolute ethyl alcohol) and the test samples (DPPH mixed with flavonoids).
(In general: Loss of DPPH colour is used to gauge radical scavenging.)

A short description of series [2]: Water solubility of quercetin and solubility in niosomes. The series is classed as physicochemical. As for the experimental part: The water solubility of quercetin was measured with 15 mL of purified water, phosphate buffers with different pH values (pH 5.0, 6.0, 6.8, 7.4, 8.0), and excess quercetin, and placed into vials. The vials were shaken for 24 h in a 37 °C water bath and the supernatant was determined by HPLC after centrifugation.

Series [3] in a line: Solubility of quercetin in different release medium. The format is physicochemical. As for the experimental part: An aqueous solutions of 15 mL of Tween80 and SDS at different concentrations and excess quercetin were placed into each of the vials. Vials were shaken in a 32 °C water bath for 24 h. After 24 h, 5 mL suspension was centrifuged at 3000 rmp for 15 min and 0.2 mL of the supernatant was diluted to 2 mL and determined using HPLC.

Series [4] is described as follows: Ex vivo drug permeation through rat abdominal skin (transdermal diffusion device). The series is classed as in vitro ADME. Particulars: 0.6% Tween80 receptor medium, up to 24 h. How it is done:
Rats were sacrificed by cervical dislocation, hair on the abdomen was shaved, and then abdominal skin was separated and placed into physiological saline. Afterward, subcutaneous tissue (muscle, fat, and vascellum) was removed using surgical scissors and hemostatic forceps and then stored at 4 °C with physiological saline for further investigation. […] Then, 0.6% Tween80 solution was selected as the penetration release medium. Skin tissues were placed between the diffusion cell and receptor cell, and 0.4 mL of quercetin preparations (equivalent to 120 μg of quercetin) was applied on the skin. Penetration medium (0.5 mL) was withdrawn from the receptor cell at 1, 2, 4, 6, 8, 10, 12, and 24 h with the replacement of fresh penetration medium (0.5 mL). Penetration mediums withdrawn at different timepoints were diluted to 7 mL with methanol and determined by HPLC after centrifugation and filtration.

Regarding `O=C(O)[C@H]1O[C@@H](Oc2cc3oc(-c4ccc(O)cc4)cc(=O)c3c(O)c2O)[C@H](O)[C@@H](O)[C@@H]1O` [Breviscapine], in the series on tyrosinase, the “anti-tyrosinase activity (in words)” value is “no promising anti-tyrosinase activity” and the IC50 anti-tyrosinase activity is greater than 1000 µg/mL. In addition, the “EC50 DPPH radical scavenging activity” value in series [1] worked out at 368.08 ± 1.04 µg/mL (≈ 796 µM).
Turning to `Cc1cc(C(C)(C)C)c(O)c(C(C)(C)C)c1` [Butylated hydroxytoluene (BHT), Butylated hydroxytoluene, reference compound], in series [1], the “EC50 DPPH radical scavenging activity” value came to 358.15 ± 1.43 µg/mL (≈ 1630 µM).
In turn, `O=c1c(O)c(-c2ccc(O)c(O)c2)oc2cc(O)ccc12` [Festin] came in with an IC50 anti-tyrosinase activity against tyrosinase of 23.10 ± 0.32 µg/mL (≈ 80.7 µM). Moreover, the “EC50 DPPH radical scavenging activity” value in series [1] turned out to be 83.19 ± 0.33 µg/mL (≈ 291 µM).
`O=c1c(O)c(-c2ccc(O)cc2O)oc2cc(O)cc(O)c12` [Morin]: the IC50 anti-tyrosinase activity at tyrosinase was 4.26 ± 0.47 µg/mL (≈ 14.1 µM). In addition, the “EC50 DPPH radical scavenging activity” value in series [1] came out at 123.06 ± 0.48 µg/mL (≈ 407 µM).
Take `O=c1c(O)c(-c2cc(O)c(O)c(O)c2)oc2cc(O)cc(O)c12` [Myricetin]: in the series on tyrosinase, the “anti-tyrosinase activity (in words)” value is recorded as “no the anti-tyrosinase activity”. Moreover, the “EC50 DPPH radical scavenging activity” value in series [1] turned out to be 118.63 ± 0.57 µg/mL (≈ 373 µM).
Molecule `O=c1c(O)c(-c2ccc(O)c(O)c2)oc2cc(O)cc(O)c12` [Quercetin] came in with an IC50 anti-tyrosinase activity against tyrosinase of 1.59 ± 0.38 µg/mL (≈ 5.26 µM). Moreover, in series [1], the “EC50 DPPH radical scavenging activity” value amounted to 80.75 ± 0.26 µg/mL (≈ 267 µM). For the same molecule, the “solubility in niosomes, fold higher than in water” value in series [2] was 1247 fold. Also, the solubility (commonly the dissolved amount per volume that the medium holds) at 24 h in series [2] (37 °C, water, thermodynamic from solid) came out at 0.21 ± 0.14 µg/mL (≈ 0.695 µM); in series [3] (0.2% SDS aqueous solution, 0.2% SDS, 32 °C, 24 h, read-out: Solubility in SDS Aqueous Solution) it was 4.58 ± 0.04 µg/mL (≈ 15.2 µM); in series [3] (0.2% Tween80 aqueous solution, 32 °C, aqueous with cosolvent or surfactant or cyclodextrin, thermodynamic from solid, 0.2% Tween80, 32 °C, 24 h, read-out: Solubility in Tween80 Aqueous Solution) it was 24.7 ± 2.15 µg/mL (≈ 81.8 µM); in series [3] (0.3% Tween80 aqueous solution, 0.3% Tween80, 32 °C, 24 h, read-out: Solubility in Tween80 Aqueous Solution), 31.4 ± 0.73 µg/mL (≈ 104 µM); in series [3] (0.4% Tween80 aqueous solution, 0.4% Tween80, 32 °C, 24 h, read-out: Solubility in Tween80 Aqueous Solution), 41.34 ± 0.19 µg/mL (≈ 137 µM); in series [3] (0.6% SDS aqueous solution, 32 °C, aqueous with cosolvent or surfactant or cyclodextrin, thermodynamic from solid, 0.6% SDS, 32 °C, 24 h, read-out: Solubility in SDS Aqueous Solution), 6.48 ± 0.44 µg/mL (≈ 21.4 µM). For the same molecule, the solubility at 24 h in series [3] (0.6% Tween80 aqueous solution, 0.6% Tween80, 32 °C, 24 h, read-out: Solubility in Tween80 Aqueous Solution) was determined as 56.4 ± 1.42 µg/mL (≈ 186 µM); in series [3] (0.8% Tween80 aqueous solution, 32 °C, aqueous with cosolvent or surfactant or cyclodextrin, thermodynamic from solid, 0.8% Tween80, 32 °C, 24 h, read-out: Solubility in Tween80 Aqueous Solution), 76.1 ± 3.11 µg/mL (≈ 252 µM); in series [3] (0.8% Tween80 aqueous solution, 32 °C, pH 5, aqueous with cosolvent or surfactant or cyclodextrin, thermodynamic from solid, 0.8% Tween80, pH 5.0, read-out: Solubility in pH-0.8%Tween80 Aqueous Solution), 76.1 ± 3.11 µg/mL (≈ 252 µM); in series [3] (0.8% Tween80 aqueous solution, 32 °C, pH 6.8, aqueous with cosolvent or surfactant or cyclodextrin, thermodynamic from solid, 0.8% Tween80, pH 6.8, read-out: Solubility in pH-0.8%Tween80 Aqueous Solution), 52.4 ± 0.71 µg/mL (≈ 173 µM); in series [3] (0.8% Tween80 aqueous solution, pH 7.4, 0.8% Tween80, pH 7.4, read-out: Solubility in pH-0.8%Tween80 Aqueous Solution), 55 ± 6.6 µg/mL (≈ 182 µM). In series [2] (medium: niosomes, from 300 μg/mL loaded and entrapment 87.3 ± 1.6%), the Solubility (commonly how much of the substance goes into solution per volume) came out at 261.9 ± 4.8 µg/mL (≈ 867 µM). For the same molecule, the “Solubility in Tween80 Aqueous Solution” value in series [3] (0.1% Tween80, 32 °C, 24 h) was 12.19 ± 1.05 µg/mL (≈ 40.3 µM). In addition, in series [3] (0.4% SDS, 32 °C, 24 h), the “Solubility in SDS Aqueous Solution” value turned out to be 4.22 ± 0.43 µg/mL (≈ 14 µM). Further, in series [3] (0.8% Tween80, pH 5.0), the “Solubility in pH-0.8%Tween80 Aqueous Solution” value was 79.49 ± 0.41 μg/mL. Besides, the “quercetin in the penetration release medium (ex vivo penetration)” value in series [4] is recorded as “could not be determined”.
With `C[C@@H]1O[C@@H](OC[C@H]2O[C@@H](Oc3c(-c4ccc(O)c(O)c4)oc4cc(O)cc(O)c4c3=O)[C@H](O)[C@@H](O)[C@@H]2O)[C@H](O)[C@H](O)[C@H]1O` [Rutin], in the series with tyrosinase, the “anti-tyrosinase activity (in words)” value is recorded as “no promising anti-tyrosinase activity” and the IC50 anti-tyrosinase activity was greater than 1000 µg/mL. The “EC50 DPPH radical scavenging activity” value in series [1] was 188.28 ± 0.68 µg/mL (≈ 308 µM).
